This is an account of results in paper PMC10447267, “Assessment of the potential of the MET inhibitor tepotinib to affect the pharmacokinetics of CYP3A4 and P-gp substrates” (Investigational New Drugs, 2023).

One series concerns the target T1, CYP2C19 (Homo sapiens, UniProt P33261).
T1 construct: pooled mixed-gender human liver microsomes; from tissue; host or cells: pooled mixed-gender human liver microsomes
Briefly: CYP2C19 inhibition in pooled human liver microsomes. The note with it: for inhibition at 49.5 µM: both sexes, human, pooled human liver microsomes, probe S-mephenytoin (4-hydroxylation). In kind it is in vitro ADME. Here is the method:
The potential of tepotinib and MSC2571109A to inhibit CYP450 enzymes CYP1A2, 2A6, 2B6, 2C8, 2C9, 2C19, 2D6, 2E1, and 3A4/5 in vitro was evaluated using CYP-catalyzed reactions in pooled mixed-gender human liver microsomes using specific substrates and liquid chromatography/tandem mass spectrometry (LC–MS/MS) readouts. […] Testosterone 6β-hydroxylation was assessed in the MSC2571109A study. Assessments of mechanism-based inhibition of the above listed CYP450 enzymes were conducted after pre-incubation of the microsomes with tepotinib or MSC2571109A. A brief summary of the incubation methods, including details of substrates used for the other CYP enzymes (which are not pertinent to this article) are presented in Online Resource 1. The LC–MS/MS-based methods used were consistent with those previously described in the literature.
A general note: Liver microsomes are vesicles of endoplasmic reticulum, rich in cytochrome P450 enzymes.

In a further series the test system is CYP2B6. Briefly: CYP2B6 activity induction in primary human hepatocyte cultures. In kind it is in vitro ADME. The conditions noted are these: enzyme activity quantification. Here is the method:
In vitro studies in primary human hepatocyte cultures were conducted to assess the potential of tepotinib to induce human CYP1A1/2, 2B6 and 3A4/5 activity, the latter based on testosterone 6β-hydroxylation reactions (Online Resource 2). […] The studies included positive (rifampin) and vehicle (DMSO) controls. A negative control (flumazenil) was also included in the mRNA studies. The study designs, test systems and selection of prototypical inducers used in these studies were consistent with PhRMA, FDA and EMA guidelines.

Like-named read-outs stand apart in the source and are kept apart here. A value given as a limit tells only on which side of the number the result lay.

T1 sequence (P33261 whole entry): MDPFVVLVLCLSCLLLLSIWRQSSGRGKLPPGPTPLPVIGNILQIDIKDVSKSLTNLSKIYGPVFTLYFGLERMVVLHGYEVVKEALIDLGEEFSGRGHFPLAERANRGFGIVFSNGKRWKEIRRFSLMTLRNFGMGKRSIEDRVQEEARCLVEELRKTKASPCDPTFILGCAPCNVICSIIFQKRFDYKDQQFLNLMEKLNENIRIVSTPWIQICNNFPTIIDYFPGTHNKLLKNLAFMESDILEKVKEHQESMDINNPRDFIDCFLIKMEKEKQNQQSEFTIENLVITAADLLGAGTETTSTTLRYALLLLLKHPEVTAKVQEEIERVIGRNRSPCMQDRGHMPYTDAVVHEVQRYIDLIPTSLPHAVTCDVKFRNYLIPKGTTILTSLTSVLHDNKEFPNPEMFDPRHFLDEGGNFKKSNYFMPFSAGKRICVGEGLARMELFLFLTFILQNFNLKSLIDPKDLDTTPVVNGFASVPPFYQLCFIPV

A word on the IC50: it is the concentration that gives 50% inhibition. As usually defined, the inhibition is the relative decrease from the control value, in per cent. A word on the Ki: it is the equilibrium dissociation constant of an inhibitor or competing ligand from its target. As for `CN1CCC(COc2cnc(-c3cccc(Cn4nc(-c5cccc(C#N)c5)ccc4=O)c3)nc2)CC1` [tepotinib], the “Potential for time-dependent inhibition” value at CYP2C19 (S-Mephenytoin 4-hydroxylation) is on record as “Little or No”. Moreover, the half-maximal inhibitory concentration (IC50) came out at 29 µM at CYP2C19 (S-Mephenytoin 4-hydroxylation, 30-min preincubation, read-out: Time-dependent inhibition IC50) and 30 µM at CYP2C19 (human liver microsomes, S-Mephenytoin 4-hydroxylation, zero-minute preincubation, read-out: Direct inhibition IC50). For the same compound, the inhibition at 49.5 µM is 65% on CYP2C19 (S-Mephenytoin 4-hydroxylation, 30-min preincubation, read-out: Time-dependent inhibition, maximum inhibition at 49.5 µM) and 64% at CYP2C19 (S-Mephenytoin 4-hydroxylation, zero-minute preincubation, read-out: Direct inhibition, maximum inhibition at 49.5 µM). Also, at CYP2C19 (human liver microsomes, read-out: Ki, CYP2C19-catalyzed probe substrate reaction), the Ki was no less than 11 µM. Besides, in the series with CYP2B6, the “Induction of CYP2B6 activity” value was “less than 40 % of positive control”.
